These results are taken from paper PMC10653776, “New dammarane-type triterpenoids from hydrolyzate of total Gynostemma pentaphyllum saponins with protein tyrosine phosphatase 1B inhibitory activity” (Journal of Enzyme Inhibition and Medicinal Chemistry, 2023).

In general, IC50 refers to the concentration at which inhibition is half-maximal. Lower therefore signals inhibition by little substance. Broadly, the Ki is a measure of affinity in units of concentration, obtained from inhibition or displacement. The low end stands for tighter binding, the high end for weaker binding.

The target of experiment [1] is T1, PTP1B (Homo sapiens, UniProt P18031).
T1 sequence (P18031 1-435): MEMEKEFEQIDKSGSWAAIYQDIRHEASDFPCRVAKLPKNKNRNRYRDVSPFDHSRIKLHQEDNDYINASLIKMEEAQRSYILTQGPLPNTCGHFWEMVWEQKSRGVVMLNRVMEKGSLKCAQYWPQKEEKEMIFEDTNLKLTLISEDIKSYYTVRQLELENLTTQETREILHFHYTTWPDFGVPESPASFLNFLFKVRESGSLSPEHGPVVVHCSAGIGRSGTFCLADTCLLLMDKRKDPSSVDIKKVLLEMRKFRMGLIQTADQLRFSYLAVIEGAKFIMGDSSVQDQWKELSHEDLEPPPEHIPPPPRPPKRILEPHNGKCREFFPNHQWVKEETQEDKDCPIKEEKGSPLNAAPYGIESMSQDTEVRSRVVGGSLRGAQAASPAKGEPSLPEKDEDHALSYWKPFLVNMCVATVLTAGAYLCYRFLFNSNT
Put plainly: PTP1B inhibition assay (pNPP colorimetric method). As to conditions: for IC50: pNPP substrate, 37 °C 30 min, means ± SD of three replications; for PTP1B inhibitory activity (in words): pNPP method, compared with positive control NaVO4. Set-up: purchased Abcam (Shanghai) Trading Co., Ltd. ab51277. The format is biochemical. As to the method:
In the separation process, the column chromatography as performed by silica-gel (100–200 and 300–400 mesh, Qingdao Marine Chemical Co., Qingdao, China), and Sephadex LH-20 (GE Healthcare, Marlborough, MA). The TLC detection was carried by heating a silica gel plate (Qingdao Marine Chemical Co., Qingdao, China) spayed with 10% H2SO4 in ethanol. The 1D and 2D NMR spectra were recorded on a Varian INOVA AS 400 instrument (Agilent, Santa Clara, USA) with TMS as the internal standard. The chemical shift was shown in ppm while coupling constant J in Hz. Deuterated solvent ([…]) was purchased from Sigma Aldrich for NMR analysis. HR-ESI-MS data were collected by a UPLC–Q/TOF-MS system including a 1290 Infinity II UPLC system (Agilent, USA) and an Agilent 6545 Q/TOF-MS system (Agilent, MA, USA). Optical rotations were measured by a JASCO P-1020 polarimeter (Kyoto, Japan). The single crystal X-ray diffraction data were obtained by a SuperNova, Dual, Cu at zero, AtlasS2 diffractometer (Rigaku, Japan). Besides, other analytical grade chemical solvent was obtained from Jinhuada Chemical Co., ltd. Guangzhou, P.R. China. Recombinant human PTP1B protein (ab51277) was purchased from Abcam (Shanghai) Trading Co., Ltd. All chemical reagents used in the enzymatic assays were produced by Laibo Chemicals Industries, Ltd.
The enzymatic assays of protein tyrosine phosphatase 1B (PTP1B) were referred. The PTP1B inhibitory activities of test compounds were examined in 96-well plates using the colorimetric method. […] The reaction system was 100 μL: MOPS (25 mM, pH = 7.0), DTT (2 mM), EDTA (1 mM, pH = 7.0), NaCl (0.1 M), PTP 1B (25 nM), and disodium-4-nitrophenyl phosphate (pNPP, 2 mM), and the enzyme-catalysed reaction was terminated by the addition of 1.0 M NaOH after incubation at 37 °C for 30 min. The inhibition efficiency of the compounds on the enzymatic activity of PTP1B was assayed by detecting the amount of the hydrolysed product, p-nitrophenol (p-NP) at 405 nm using a microplate reader. The PTP1B inhibition activity was expressed as inhibition (%) and was calculated as Equation (1): (1) Inhibition (%)=(1−ΔAsample/ΔAcontrol)×100%

The target in experiment [2] is T1, PTP1B. Put plainly: PTP1B inhibition kinetic assay (Lineweaver-Burk and Dixon plots). It is filed as biochemical. Particulars: for Ki: Dixon plot method, means ± SD of three replications; for type of inhibition against PTP1B: Lineweaver-Burk double reciprocal plot. As to the method:
The kinetic behaviour of the active compounds against PTP1B and the corresponding inhibition constants (Ki values) were investigated using Lineweaver-Burk double reciprocal plots and Dixon plots. Different concentrations of p-NPP substrates (1, 2, 5 and 10 mM) were subjected to enzymatic reactions with various concentrations of active compounds (0, 0.5, 1.0 and 5.0 μM for 18) and 100 nM PTP1B in 96-well plates. The absorbance of the reaction mixture was recorded every 3 min by a plate reader. The enzymatic velocity of the enzyme reaction was calculated based on the time-Δabs plot. All assays were performed in triplicate.

Regarding `CC1(C)CCC=C(C(=O)C2CCC3(C)C2CCC2C4=C(CCC23C)C(C)(C)C2CCC4O2)O1` (stereo not shown) [Compound 1, Gypensapogenin I], at PTP1B [1], it took 20.3 ± 2.49 µM to reach half-maximal inhibition (IC50).

Turning to `CC(C)=C[C@H]1C=C([C@H]2CC[C@]3(C)[C@@H]2CC[C@@H]2[C@@]4(C)CC[C@H](O)C(C)(C)[C@@H]4CC[C@]23C)C(=O)O1` [Compound 9, Gypensapogenin D], on PTP1B [1], the “PTP1B inhibitory activity (in words)” value is recorded as “more inhibitory activity against PTP1B than the positive control” and half-maximal inhibition (IC50) was put at 7.77 ± 0.85 µM. Further, on PTP1B [2], the Ki was determined as 5.58 ± 0.7 µM and the “type of inhibition against PTP1B” value is given as “competitive inhibitors”.

On to `CC(C)=C1CC([C@H]2CC[C@]3(C)[C@@H]2CCC2[C@@]4(C)CC[C@H](O)C(C)(C)C4CC[C@]23C)=CC1=O` (stereo partly shown) [Compound 2, Gypensapogenin II], for which, at PTP1B [1], the “PTP1B inhibitory activity (in words)” value was “more inhibitory activity against PTP1B than the positive control” and the IC50 was 10.5 ± 1.07 µM.

For the molecule `CC(C)(O)CC(=O)CC(C(=O)O)[C@H]1CC[C@]2(C)[C@@H]1CCC1[C@@]3(C)CC[C@H](O)C(C)(C)C3CC[C@]12C` (stereo partly shown) [Compound 4, Gypensapogenin IV], at PTP1B [1], the “PTP1B inhibitory activity (in words)” value is “more inhibitory activity against PTP1B than the positive control” and it took 4.26 ± 0.42 µM to reach half-maximal inhibition (IC50). Also, at PTP1B [2], the Ki was 2.44 ± 0.09 µM and the “type of inhibition against PTP1B” value is “competitive inhibitors”.

With `CC(C)=C1CC=C([C@H]2CC[C@]3(C)[C@@H]2CC[C@@H]2[C@@]4(C)CC[C@H](O)C(C)(C)[C@@H]4CC[C@]23C)C1=O` [Compound 8, Gypensapogenin C], at PTP1B [1], the IC50 is 24.6 ± 2.28 µM.

In turn, `CC(C)=C1CC([C@H]2CC[C@]3(C)[C@@H]2CC[C@@H]2C4=C(CC[C@]23C)C(C)(C)[C@@H]2CC[C@H]4O2)=CC1=O` [Compound 7, Gypensapogenin B] showed an IC50 at PTP1B [1] of 29.4 ± 2.48 µM.

With `CC(C)=C1CC=C([C@H]2CC[C@]3(C)[C@@H]2CC[C@@H]2C4=C(CC[C@]23C)C(C)(C)[C@@H]2CC[C@H]4O2)C1=O` [Compound 6, Gypensapogenin A], at PTP1B [1], the midpoint of inhibition, the IC50, lay at 19.6 ± 1.48 µM.

In turn, `CC(C)=CC(=O)CC(C(=O)O)[C@H]1CC[C@]2(C)[C@@H]1CCC1[C@@]3(C)CC[C@H](O)C(C)(C)C3CC[C@]12C` (stereo partly shown) [Compound 5, Gypensapogenin V] showed an IC50 against PTP1B [1] of 33.9 ± 0.83 µM.

Take `CC(C)=CCC[C@@](O)(C(=O)O)[C@H]1CC[C@]2(C)[C@@H]1CCC1[C@@]3(C)CC[C@H](O)C(C)(C)C3CC[C@]12C` (stereo partly shown) [Compound 3, Gypensapogenin III]: at PTP1B [1], the “PTP1B inhibitory activity (in words)” value is listed as “more inhibitory activity against PTP1B than the positive control” and the half-maximal inhibitory concentration (IC50) was 2.34 ± 0.24 µM. Moreover, at PTP1B [2], the Ki was determined as 1.16 ± 0.47 µM and the “type of inhibition against PTP1B” value is “competitive inhibitors”.
